# From patent US12662674B2, “RNA nanoparticle for liver cancer treatment” (OHIO STATE INNOVATION FOUNDATION, priority 2019, dated 2026)
# Tested on: HepG2 cells
# Experiment: HSA synergy modeling of cell viability
# Conditions: HSA model, Combenefit; FIG. 17C: 6WJ/HTL/miR122 and 6WJ/HTL/PTX nanoparticles
# Description: To study the synergy between miR122 and PTX in cytotoxicity induction, an MTT cell viability assay was first performed. […] Cell viability was used as an indicator to quantify the correlation of synergy between miR122 and PTX using Highest Single Agent (HSA) synergy modeling. The data was processed and quantified using Combenefit software to obtain the HSA synergy score between miR122 and PTX (FIG. 17C). […] The number represented the co-efficiency of synergy.
# Cell viability was studied following MTT protocol in cytotoxicity assay. The result was presented by Prism 8.0 (Graph Pad). The viability result was entered into HSA synergy modeling by Combenefit and plotted by Prism 8.0.
smiles,measurement,value
"CC(=O)O[C@H]1C(=O)[C@@]2(C)[C@H]([C@H](OC(=O)c3ccccc3)[C@]3(O)C[C@H](OC(=O)[C@H](O)[C@@H](NC(=O)c4ccccc4)c4ccccc4)C(C)=C1C3(C)C)[C@]1(OC(C)=O)CO[C@@H]1C[C@@H]2O [PTX, Paclitaxel]",concentration of highest synergy in cytotoxic induction,3.2 µM
